Experimental data from patent US12697316B2, “Combination therapy with acetyl-leucine and miglustat” (INTRABIO LTD., priority 2019, dated 2026).

Assays:
NPC patients = experiment: Observational clinical study of adult NPC patients treated with ADLL; format: in vivo, human
Text: Progression of a LSD or one or more symptoms of a LSD over time or through treatment can be monitored, for example, using one or more known tests at two or more time points and comparing the results. Disease progression and/or severity can be assessed, for example, using the Scale for the Assessment and Rating of Ataxia (SARA), Spinocerebellar Ataxia Functional Index (SCAFI), the International Cooperative Ataxia Rating Scale (ICARS), the brief ataxia rating scale (BARS), the modified Disability Rating Scale (mDRS), EuroQol 5Q-5D-5L (EQ-5D-5L), the visual analogue scale (VAS), Wechsler Adult Intelligence Scale-Revised (WAIS-R), Wechsler Intelligence Scale for Children-IV (WISC-IV), Montreal Cognitive Assessment (MoCA) or other suitable tests. For certain LSDs, such as NPC, particular scores have been developed and validated over the last decades, for instance the clinical severity score (CSS) and annual severity increment score (ASIS) (see Yanjanin et al., “Linear Clinical Progression, Independent of Age of Onset, in Niemann—Pick Disease, Type C,” Am J Med Genet Part B 153B:132-140) and the modified 6-Domain NP-C disability Scale (mDRS score). For example, an NPC patient's severity can be quantified by assigning a CSS, which assesses various parameters of the disease (ambulation, seizures, eye movement, etc.) and gives each parameter a score out of 5. A higher score equals a greater severity. The ASIS quantifies the annual rate of change in the CSS, calculated by dividing the CSS by the patient's age. In this regard, certain scores in these tests are characteristic of symptomatic LSD patients and evidence disease progression and/or severity.
Demographics and statistical analysis of a clinical observational study of adult NPC patients treated with ADLL: The cohort comprised 3 females and 10 males. Consent from all participants was obtained. Twelve of the NPC patients were on miglustat therapy (minimum exposure 2.65, 1t^st quartile 3.44, median 4.92, mean 4.87, 3rd quartile 5.80 and maximum 7.98 years). The thirteen NPC1 patients participated in an observational study treated with 5 g/day acetyl-DL-leucine (Tanganil™). Three patients had four prospective clinical severity score measurements and ten patients had five measurements taken during this observational study (NIH, CSS). Retrospective data were used to calculate rates of disease progression prior to recruitment to this study. The mean age at the start of acetyl-DL-leucine (Tanganil™) treatment was 26.59 years. The minimum age was 15.44, 1s^t quartile 20.97, median 26.98 and third quartile 30.79 with maximum age 37.37 years. The time in the observational treatment study was a […], 1st quartile 0.81, median 1, mean 0.95, third quartile 1.13 and maximum 1.21 years.

Sandhoff (Hexb^−/−) mice [1] = experiment: Bar crossing test in Sandhoff (Hexb−/−) mice; format: in vivo, mouse; conditions: 12 and 13 weeks
Method: (§1) BALBc/NPC ^h and Sandhoff mice were bred as heterozygotes to generate affected mice (Npc1^−/−, Hexb^−/−) and controls (Npc^+/+, Hexb^+/+). The mice were housed under non-sterile conditions, with food and water available ad libitum. All experiments were conducted using protocols approved by the UK Home Office Animal Scientific Procedures Act, 1986.
ADLL and enantiomers (ADLL: Molekula #73891210, ALL: Sigma Aldrich #441511, ADL: Sigma #A0876) were administered as dry admix in powdered mouse diet (PicoLab Rodent Diet 20/5053, LabDiet) at a dose of 0.1 g/kg/day for in vivo studies. Treatment groups for in vivo study consisted of at least 5 mice per group. […]
The weight and activity of each mouse was recorded weekly until reaching the humane endpoint (defined as a loss of 1 g body weight within 24 h). Gait analysis was performed using CatWalk 10.5 system (Noldus) according to the manufacturer's instructions and five runs were recorded per animal at each time point. […] Motor function was measured using an accelerating NG Rota Rod for mice (Ugo Basile) starting from 1 rpm to 10 rpm, accelerating every 30 seconds by one rpm. […] Latency to cross or fall from the bar was scored, with 120 sec, maximum, to termination of each trial. […]

Sandhoff (Hexb^−/−) mice [2] = experiment: Survival of Sandhoff (Hexb−/−) mice; format: in vivo, mouse; conditions: Hexb−/− mice treated from weaning, 0.1 g/kg/day
Method: as §1
[…] Treatment groups for in vivo study consisted of at least 5 mice per group. In vitro studies were conducted with each compound dissolved in PBS to generate a 50 mM stock solution and diluted to a 1 mM working concentration in media (DMEM High Glucose-Gibco #10566016).
The weight and activity of each mouse was recorded weekly until reaching the humane endpoint (defined as a loss of 1 g body weight within 24 h). Gait analysis was performed using CatWalk 10.5 system (Noldus) according to the manufacturer's instructions and five runs were recorded per animal at each time point. The camera was set to 40 cm below the walkway, the walkway was approximately 4 cm wide, and detection settings set to camera gain 14.05 and green intensity 0.12. Motor function was measured using an accelerating NG Rota Rod for mice (Ugo Basile) starting from 1 rpm to 10 rpm, accelerating every 30 seconds by one rpm. […] Latency to cross or fall from the bar was scored, with 120 sec, maximum, to termination of each trial. […]

[3] = number of the 13 treated NPC patients, neurological subdomain

Structure (SMILES): CC(=O)NC(CC(C)C)C(=O)O (racemic) [ADLL, N-acetyl-DL-leucine]
- mean change in Annual Severity Increment Scores (ASIS) (NPC patients; 13 NPC patients): −9.1 %/year
- average slope of disease progression (total clinical severity score) following initiation of treatment (NPC patients; 13 adult NPC patients, 5 g/day, 12 also on miglustat, average slope before treatment 1.8): −1.78 severity units/year
- Ambulation: Deteriorated (NPC patients; [3]): 1
- Ambulation: Improved (NPC patients; [3]): 8
- Ambulation: Stable (NPC patients; [3]): 4
- Cognition: Deteriorated (NPC patients; [3]): 1
- Cognition: Improved (NPC patients; [3]): 6
- Cognition: Stable (NPC patients; [3]): 6
- Eye movement: Deteriorated (NPC patients; [3]): 1
- Eye movement: Improved (NPC patients; [3]): 8
- Eye movement: Stable (NPC patients; [3]): 4
- Fine motor skills: Deteriorated (NPC patients; [3]): 2
- Fine motor skills: Improved (NPC patients; [3]): 8
- Fine motor skills: Stable (NPC patients; [3]): 3
- Memory: Deteriorated (NPC patients; [3]): 1
- Memory: Improved (NPC patients; [3]): 10
- Memory: Stable (NPC patients; [3]): 2
- Speech: Deteriorated (NPC patients; [3]): 3
- Speech: Improved (NPC patients; [3]): 3
- Speech: Stable (NPC patients; [3]): 7
- Swallow: Deteriorated (NPC patients; [3]): 1
- Swallow: Improved (NPC patients; [3]): 10
- Swallow: Stable (NPC patients; [3]): 2
- patients with negative slopes following initiation of treatment (NPC patients; of 13 NPC patients): 10
- patients with no slope following initiation of treatment (NPC patients; of 13 NPC patients): 3
- Bar-crossing test performance (Sandhoff (Hexb^−/−) mice [1]): significantly improved
- median increase in lifespan (Sandhoff (Hexb^−/−) mice [2]): 8 days
